Laboratory results taken from the supplement of paper PMC10307832.

Columns and labels:
Assay in all cases: relative viability (nuclei count vs DMSO), 5 days (fraction); higher = more cells survive
BI-2536 + OSI-027 = compound: CC[C@@H]1C(=O)N(C)c2cnc(Nc3ccc(C(=O)NC4CCN(C)CC4)cc3OC)nc2N1C1CCCC1 [BI-2536] + COc1cccc2cc(-c3nc([C@H]4CC[C@H](C(=O)O)CC4)n4ncnc(N)c34)[nH]c12 [OSI-027] (partner 0.5 µM)
How it was run: (§1)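 Nuclei were stained with Hoechst during a one-step fixation (final 0.05% Triton X-100, 1% formaldehyde, 1 ug/ml Hoechst) carried out 5 days after dosing, then counted on 4× images. The cells, lung cancer lines in 1536-well plates, had been dosed by pin tool the day after seeding with one drug alone or a fixed anchor-drug dose plus five library-drug doses (not always all listed) in √10 steps. Relative viability is the nuclei count in treated wells divided by that in vehicle wells, and each value is the median of duplicate plates.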

[1] = compound: CC1CC(=O)N(C2=CN=C(N=C2N1C3CCCC3)NC4=C(C=C(C=C4)C(=O)NC5CCN(CC5)C)OC)C [NPK76-II-72-1] + Nc1nc2[nH]cc(CCc3ccc(C(=O)N[C@@H](CCC(=O)O)C(=O)O)cc3)c2c(=O)[nH]1 [Pemetrexed] (partner 0.2 µM)
How it was run: as §1

BI-2536 + Decitabine = compound: CC[C@@H]1C(=O)N(C)c2cnc(Nc3ccc(C(=O)NC4CCN(C)CC4)cc3OC)nc2N1C1CCCC1 [BI-2536] + Nc1ncn([C@H]2C[C@H](O)[C@@H](CO)O2)c(=O)n1 [Decitabine] (partner 2 µM)
How it was run: as §1

BI-2536 + Olaparib = compound: CC[C@@H]1C(=O)N(C)c2cnc(Nc3ccc(C(=O)NC4CCN(C)CC4)cc3OC)nc2N1C1CCCC1 [BI-2536] + O=C(c1cc(Cc2n[nH]c(=O)c3ccccc23)ccc1F)N1CCN(C(=O)C2CC2)CC1 [Olaparib] (partner 8 µM)
How it was run: as §1

Cell Line | relative viability (BI-2536 + OSI-027; first compound 0.01 µM) | relative viability (BI-2536 + OSI-027; first compound 0.03162 µM) | relative viability (BI-2536 + OSI-027; first compound 0.1 µM) | relative viability (BI-2536 + OSI-027; first compound 0.3162 µM) | relative viability (BI-2536 + OSI-027; first compound 1 µM) | relative viability ([1]; first compound 0.01 µM) | relative viability ([1]; first compound 0.03162 µM) | relative viability ([1]; first compound 0.1 µM) | relative viability ([1]; first compound 0.3162 µM) | relative viability ([1]; first compound 1 µM) | relative viability (BI-2536 + Decitabine; first compound 0.01 µM) | relative viability (BI-2536 + Decitabine; first compound 0.03162 µM) | relative viability (BI-2536 + Decitabine; first compound 0.1 µM) | relative viability (BI-2536 + Decitabine; first compound 0.3162 µM) | relative viability (BI-2536 + Decitabine; first compound 1 µM) | relative viability (BI-2536 + Olaparib; first compound 0.01 µM) | relative viability (BI-2536 + Olaparib; first compound 0.03162 µM) | relative viability (BI-2536 + Olaparib; first compound 0.1 µM) | relative viability (BI-2536 + Olaparib; first compound 0.3162 µM) | relative viability (BI-2536 + Olaparib; first compound 1 µM)
NCI-H1734 | 0.57 | 0.494 | 0.206 | 0.179 | 0.19 | 0.428 | 0.402 | 0.413 | 0.418 | 0.416 | 0.5 | 0.457 | 0.37 | 0.157 | 0.164 | 0.605 | 0.618 | 0.254 | 0.176 | 0.153
LXF-289 | 0.844 | 0.687 | 0.181 | 0.0418 | 0.0509 | 0.885 | 0.976 | 0.89 | 0.892 | 0.855 | 0.382 | 0.376 | 0.363 | 0.0762 | 0.1 | 1 | 0.719 | 0.343 | 0.0702 | 0.0622
H3255 | 0.51 | 0.586 | 0.188 | 0.259 | 0.323 | 0.565 | 0.517 | 0.604 | 0.446 | 0.602 | 0.565 | 0.374 | 0.428 | 0.16 | 0.299 | 0.529 | 0.401 | 0.406 | 0.298 | 0.275
201T | 0.331 | 0.715 | 0.728 | 0.0923 | 0.16 | 0.344 | 0.319 | 0.338 | 0.324 | 0.333 | 0.873 | 0.838 | 0.815 | 0.332 | 0.225 | 0.879 | 0.796 | 0.853 | 0.382 | 0.205
NCI-H2126 | 0.832 | 0.641 | 0.472 | 0.276 | 0.218 | 0.678 | 0.809 | 0.617 | 0.672 | 0.736 | 0.547 | 0.591 | 0.492 | 0.247 | 0.244 | 0.968 | 0.891 | 0.77 | 0.322 | 0.241
HOP-62 | 0.803 | 0.724 | 0.526 | 0.268 | 0.181 | 0.291 | 0.374 | 0.296 | 0.245 | 0.32 | 0.201 | 0.209 | 0.231 | 0.151 | 0.142 | – | 0.309 | 0.191 | 0.101 | 0.089
NCI-H520 | 0.277 | 0.289 | 0.195 | 0.292 | 0.2 | 0.575 | 0.741 | 0.427 | 0.65 | 0.825 | 0.538 | 0.393 | 0.226 | 0.195 | 0.209 | 0.284 | 0.217 | 0.228 | 0.162 | 0.168
NCI-H1755 | 0.707 | 0.692 | 0.324 | 0.245 | 0.275 | 0.385 | 0.405 | 0.464 | 0.544 | 0.405 | 0.689 | 0.716 | 0.642 | 0.347 | 0.379 | 0.945 | 0.816 | 0.707 | 0.373 | 0.316
NCI-H2023 | 0.398 | 0.406 | 0.189 | 0.0915 | 0.0907 | 0.229 | 0.228 | 0.236 | 0.253 | 0.268 | 0.186 | 0.191 | 0.112 | 0.091 | 0.084 | 0.426 | 0.338 | 0.13 | 0.0876 | 0.0937
NCI-H2009 | 0.613 | 0.543 | 0.259 | 0.173 | 0.154 | 0.971 | 1.18 | 1 | 1.02 | 1.04 | 0.4 | 0.337 | 0.324 | 0.193 | 0.169 | 0.665 | 0.54 | 0.45 | 0.114 | 0.126
